Converted amounts (≈) assume the structure as drawn. Where two headings read alike, the source gives them in different places.
Assays:
Enterococcus sp. = assay: Mueller-Hinton agar dilution method (MIC); type: cell-based; conditions: Table I
Salmonella (arizona) = assay: Mueller-Hinton agar dilution method (MIC); type: cell-based; conditions: strain QHC-77-3, Table I, read-out: Minimal Inhibitory Concentration
Citrobacter sp. = assay: Mueller-Hinton agar dilution method (MIC); type: cell-based; conditions: strain K-81-27, Table I, read-out: Minimal Inhibitory Concentration
Staphylococcus aureus [1] = assay: Mueller-Hinton agar dilution method (MIC); type: cell-based; conditions: read-out: Minimal Inhibitory Concentration
Klebsiella oxytoca = assay: Mueller-Hinton agar dilution method (MIC); type: cell-based; conditions: strain K-81-6, Table I, read-out: Minimal Inhibitory Concentration
Acinetobacter sp. = assay: Mueller-Hinton agar dilution method (MIC); type: cell-based; conditions: read-out: Minimal Inhibitory Concentration
Klebsiella pneumoniae = assay: Mueller-Hinton agar dilution method (MIC); type: cell-based; conditions: Table I
Proteus morganii = assay: Mueller-Hinton agar dilution method (MIC); type: cell-based; conditions: Morganella morganii, Table I, read-out: Minimal Inhibitory Concentration
Salmonella sp. = assay: Mueller-Hinton agar dilution method (MIC); type: cell-based; conditions: strain SSC-79-57, Table I, read-out: Minimal Inhibitory Concentration
Excerpt: The results appear in Tables I, II, and III.

Escherichia coli [2] = assay: Mueller-Hinton agar dilution method (MIC); type: cell-based; conditions: read-out: Minimal Inhibitory Concentration
Enterobacter cloacae = assay: Mueller-Hinton agar dilution method (MIC); type: cell-based; conditions: read-out: Minimal Inhibitory Concentration
Serratia marcescens = assay: Mueller-Hinton agar dilution method (MIC); type: cell-based; conditions: read-out: Minimal Inhibitory Concentration
Enterobacter aerogenes = assay: Mueller-Hinton agar dilution method (MIC); type: cell-based; conditions: Klebsiella aerogenes; strain STFD-79-14; Table I; read-out: Minimal Inhibitory Concentration
Pseudomonas aeruginosa = assay: Mueller-Hinton agar dilution method (MIC); type: cell-based; conditions: read-out: Minimal Inhibitory Concentration
Proteus rettgeri = assay: Mueller-Hinton agar dilution method (MIC); type: cell-based; conditions: Providencia rettgeri; strain N-76-1; Table I; read-out: Minimal Inhibitory Concentration
Providencia stuartti = assay: Mueller-Hinton agar dilution method (MIC); type: cell-based; conditions: strain K-81-29, Table I, read-out: Minimal Inhibitory Concentration
Staphylococcus aureus [3] = assay: control of systemic lethal infections in mice; type: in vivo, mice (Charles River Laboratories CD-1 strain female); conditions: sc, 168 h, survival at 7 days, three tests pooled, read-out: Median Effective Dose (ED50)
Procedure: (§1) The test employed used Charles River Laboratories CD-1 strain female mice each weighing 20+2 grams. The mice were infected by intraperitoneal injection of sufficient bacteria (see Table 2), contained in either 0.5 ml. of 5% mucin (S. aureus strains) or broth (S. pyogenes or E. coli), to kill 95-100% of untreated mice within 48 hours.
(§2) The mice were treated by subcutaneous injection 30 minutes after infection with the test drug at varying doses contained in 0.5 ml. of 0.2% aqueous agar. Survival ratios seven days after infection were recorded.

Staphylococcus pyogenes = assay: control of systemic lethal infections in mice; type: in vivo, mice (Charles River Laboratories CD-1 strain female); conditions: Staphylococcus aureus, sc, 168 h; strain C 203; subcutaneous 30 min after i.p. infection; survival at 7 days; three tests pooled; 95% confidence limits (0.08-0.13); read-out: Median Effective Dose (ED50)
Procedure: as §1, §2

Escherichia coli [4] = assay: control of systemic lethal infections in mice; type: in vivo, mice (Charles River Laboratories CD-1 strain female); conditions: sc, 168 h, strain 311, subcutaneous 30 min after i.p. infection, survival at 7 days, three tests pooled, 95% confidence limits (0.28-0.44), read-out: Median Effective Dose (ED50)
Procedure: as §1, §2

SMILES: CO/N=C(\C(=O)N[C@@H]1C(=O)N2C(C(=O)O)=C(CSc3cnns3)CS[C@H]12)c1csc(N)n1 [Compound Ia, 7 beta-[alpha-syn-methoxyimino-alpha-(2-aminothiazol-4-yl)acetamido]-3-[(1,2,3-thiadiazol-5-ylthio)methyl]-3-cephem-4-carboxylic acid]
- MIC (Enterococcus sp.; Enterococcus, strain OSU-75-1, read-out: Minimal Inhibitory Concentration): 32 µg/mL (≈ 62.3 µM)
- Minimal Inhibitory Concentration (Enterococcus sp.; strain SM-77-15): 32 µg/mL
- MIC (Salmonella (arizona)): 0.03 µg/mL (≈ 0.0584 µM)
- MIC (Citrobacter sp.): 0.03 µg/mL (≈ 0.0584 µM)
- MIC (Staphylococcus aureus [1]; beta-lactamase negative, strain SSC 79-3, Table II): 0.12 µg/mL (≈ 0.234 µM)
- MIC (Staphylococcus aureus [1]; beta-lactamase negative, strain SSC 79-5, Table II): 0.5 µg/mL (≈ 0.974 µM)
- MIC (Staphylococcus aureus [1]; beta-lactamase negative, strain SSC 79-7, Table II): 0.12 µg/mL (≈ 0.234 µM)
- MIC (Staphylococcus aureus [1]; beta-lactamase negative, strain SSC 79-9, Table II): 0.12 µg/mL (≈ 0.234 µM)
- MIC (Staphylococcus aureus [1]; beta-lactamase negative, strain SSC 79-10, Table II): 0.12 µg/mL (≈ 0.234 µM)
- MIC (Staphylococcus aureus [1]; beta-lactamase negative, strain SSC 79-11, Table II): 0.12 µg/mL (≈ 0.234 µM)
- MIC (Staphylococcus aureus [1]; beta-lactamase negative, strain SSC 79-14, Table II): 0.5 µg/mL (≈ 0.974 µM)
- MIC (Staphylococcus aureus [1]; beta-lactamase negative, strain SSC 79-15, Table II): 0.5 µg/mL (≈ 0.974 µM)
- MIC (Staphylococcus aureus [1]; beta-lactamase negative, strain SSC 79-17, Table II): 0.25 µg/mL (≈ 0.487 µM)
- MIC (Staphylococcus aureus [1]; beta-lactamase positive, strain SSC 79-24, Table II): 4 µg/mL (≈ 7.79 µM)
- MIC (Staphylococcus aureus [1]; beta-lactamase positive, strain SSC 79-27, Table II): 0.25 µg/mL (≈ 0.487 µM)
- MIC (Staphylococcus aureus [1]; beta-lactamase positive, strain SSC 79-28, Table II): 0.25 µg/mL (≈ 0.487 µM)
- MIC (Staphylococcus aureus [1]; beta-lactamase positive, strain SSC 79-36, Table II): 0.25 µg/mL (≈ 0.487 µM)
- MIC (Staphylococcus aureus [1]; beta-lactamase positive, strain SSC 79-38, Table II): 0.25 µg/mL (≈ 0.487 µM)
- MIC (Staphylococcus aureus [1]; beta-lactamase positive, strain SSC 79-39, Table II): 0.25 µg/mL (≈ 0.487 µM)
- MIC (Staphylococcus aureus [1]; beta-lactamase positive, strain SSC 79-41, Table II): 0.5 µg/mL (≈ 0.974 µM)
- MIC (Staphylococcus aureus [1]; beta-lactamase positive, strain SSC 79-44, Table II): 0.12 µg/mL (≈ 0.234 µM)
- MIC (Staphylococcus aureus [1]; beta-lactamase positive, strain SSC 79-47, Table II): 0.25 µg/mL (≈ 0.487 µM)
- MIC (Staphylococcus aureus [1]; strain FU-79-19-2, Table I): 0.5 µg/mL (≈ 0.974 µM)
- MIC (Staphylococcus aureus [1]; strain SSC-79-18, Table I): 0.25 µg/mL (≈ 0.487 µM)
- MIC (Staphylococcus aureus [1]; strain SSC-80-15, Table I): 0.5 µg/mL (≈ 0.974 µM)
- MIC (Staphylococcus aureus [1]; strain Smith, Table I): 0.25 µg/mL (≈ 0.487 µM)
- MIC (Klebsiella oxytoca): 0.03 µg/mL (≈ 0.0584 µM)
- MIC (Acinetobacter sp.; strain K-77-1, Table I): 4 µg/mL (≈ 7.79 µM)
- MIC (Acinetobacter sp.; strain K-77-6, Table I): 16 µg/mL (≈ 31.2 µM)
- MIC (Acinetobacter sp.; strain STFD-79-17, Table I): 16 µg/mL (≈ 31.2 µM)
- MIC (Klebsiella pneumoniae; Klebsiella pneumoniae, strain STFD-79-16, read-out: Minimal Inhibitory Concentration): 0.015 µg/mL (≈ 0.0292 µM)
- Minimal Inhibitory Concentration (Klebsiella pneumoniae; strain SSC-78-1): .015 µg/mL
- MIC (Proteus morganii; strain K-77-3): 4 µg/mL (≈ 7.79 µM)
- MIC (Proteus morganii; strain K-79-25): 0.015 µg/mL (≈ 0.0292 µM)
- MIC (Salmonella sp.): 0.25 µg/mL (≈ 0.487 µM)
- MIC (Escherichia coli [2]; strain #311, Table I): 0.03 µg/mL (≈ 0.0584 µM)
- MIC (Escherichia coli [2]; strain K-81-14, Table I): 0.06 µg/mL (≈ 0.117 µM)
- MIC (Escherichia coli [2]; strain STFD-79-20, Table I): 0.015 µg/mL (≈ 0.0292 µM)
- MIC (Enterobacter cloacae; strain K-79-16, Table I): 0.25 µg/mL (≈ 0.487 µM)
- MIC (Enterobacter cloacae; strain K-81-46, Table I): 0.12 µg/mL (≈ 0.234 µM)
- MIC (Serratia marcescens; strain K-81-39, Table I): 0.12 µg/mL (≈ 0.234 µM)
- MIC (Serratia marcescens; strain QHC-77-2, Table I): 1 µg/mL (≈ 1.95 µM)
- MIC (Serratia marcescens; strain TUL-78-15, Table I): 1 µg/mL (≈ 1.95 µM)
- MIC (Enterobacter aerogenes): 0.03 µg/mL (≈ 0.0584 µM)
- MIC (Pseudomonas aeruginosa; strain 12-4-4, Table I): 32 µg/mL (≈ 62.3 µM)
- MIC (Pseudomonas aeruginosa; strain SSC-78-13, Table I): 64 µg/mL (≈ 125 µM)
- MIC (Pseudomonas aeruginosa; strain TUL-78-2, Table I): 128 µg/mL (≈ 249 µM)
- MIC (Proteus rettgeri): 0.015 µg/mL (≈ 0.0292 µM)
- MIC (Providencia stuartti): 0.06 µg/mL (≈ 0.117 µM)
- ED50 (Staphylococcus aureus [3]; strain Fu-79-2, subcutaneous 30 min after i.p. infection, 95% confidence limits (4.4-8.4)): 6.1 mg/kg
- ED50 (Staphylococcus aureus [3]; strain Smith, subcutaneous 30 min after i.p. infection, 95% confidence limits (2.4-3.6)): 2.9 mg/kg
- ED50 (Staphylococcus pyogenes): 0.1 mg/kg
- ED50 (Escherichia coli [4]): 0.35 mg/kg

From patent US4399132A, “7-Beta-[alpha-syn-methoxyimino-alpha-(2-aminothiazol-4-yl)-aceta mido]-3-[(1,2,3-thiadiazol-5-ylthio)methyl]-3-cephem-4-carboxylic acid and C1 -C6 alkyl derivatives thereof” (American Cyanamid Company, priority 1981, dated 1983)
